# Measurements published in ChEMBL document CHEMBL1142918, “Carbonic anhydrase and matrix metalloproteinase inhibitors. Inhibition of human tumor-associated isozymes IX and cytosolic isozyme I and II with sulfonylated hydroxamates” (Bioorg Med Chem, 2007).
# Tests used:
# [1] = target: 72 kDa type IV collagenase (Homo sapiens, UniProt P08253)
# Description: Inhibition of human recombinant MMP2 expressed in mouse myeloma cells
# [2] = target: Matrix metalloproteinase-9 (Homo sapiens, UniProt P14780)
# Description: Inhibition of human recombinant MMP9 expressed in mouse myeloma cells
# Carbonic anhydrase 2 = Carbonic anhydrase 2 (Homo sapiens, UniProt P00918)
# Description: Inhibition of human recombinant carbonic anhydrase 2 by CO2 hydration method
# Carbonic anhydrase 1 = Carbonic anhydrase 1 (Homo sapiens, UniProt P00915)
# Chain of Carbonic anhydrase 1 (P00915 whole entry): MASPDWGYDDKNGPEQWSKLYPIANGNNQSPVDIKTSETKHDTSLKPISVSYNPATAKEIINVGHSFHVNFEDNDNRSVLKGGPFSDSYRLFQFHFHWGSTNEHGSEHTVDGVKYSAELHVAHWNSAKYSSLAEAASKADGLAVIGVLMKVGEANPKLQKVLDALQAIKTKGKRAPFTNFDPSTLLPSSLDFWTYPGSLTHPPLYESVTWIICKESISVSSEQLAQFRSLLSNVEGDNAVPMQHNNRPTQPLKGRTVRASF
# Description: Inhibition of human recombinant carbonic anhydrase 1 by CO2 hydration method
# Carbonic anhydrase 9 = Carbonic anhydrase 9 (Homo sapiens, UniProt Q16790)
# Description: Inhibition of human recombinant carbonic anhydrase 9 by CO2 hydration method
# Chain of Matrix metalloproteinase-9 (P14780 whole entry): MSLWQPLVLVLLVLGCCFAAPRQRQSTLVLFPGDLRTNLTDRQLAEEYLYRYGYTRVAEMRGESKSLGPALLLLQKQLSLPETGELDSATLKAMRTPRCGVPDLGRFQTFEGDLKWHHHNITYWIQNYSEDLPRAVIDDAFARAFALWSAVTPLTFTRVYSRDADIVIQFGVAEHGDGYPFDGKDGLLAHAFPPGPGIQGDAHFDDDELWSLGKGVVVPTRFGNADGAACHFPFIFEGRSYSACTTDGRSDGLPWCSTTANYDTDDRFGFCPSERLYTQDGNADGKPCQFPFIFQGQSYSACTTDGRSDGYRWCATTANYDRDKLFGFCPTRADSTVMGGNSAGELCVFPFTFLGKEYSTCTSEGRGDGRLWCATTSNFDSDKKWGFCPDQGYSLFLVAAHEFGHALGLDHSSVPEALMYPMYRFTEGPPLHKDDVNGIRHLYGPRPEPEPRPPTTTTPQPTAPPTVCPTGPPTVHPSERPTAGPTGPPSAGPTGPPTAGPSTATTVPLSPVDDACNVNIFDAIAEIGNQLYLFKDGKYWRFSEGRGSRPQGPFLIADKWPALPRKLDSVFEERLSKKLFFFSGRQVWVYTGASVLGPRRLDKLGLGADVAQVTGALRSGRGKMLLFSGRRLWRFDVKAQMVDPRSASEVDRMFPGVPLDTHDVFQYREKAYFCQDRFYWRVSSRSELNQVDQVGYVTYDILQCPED
# Chain of 72 kDa type IV collagenase (P08253 whole entry): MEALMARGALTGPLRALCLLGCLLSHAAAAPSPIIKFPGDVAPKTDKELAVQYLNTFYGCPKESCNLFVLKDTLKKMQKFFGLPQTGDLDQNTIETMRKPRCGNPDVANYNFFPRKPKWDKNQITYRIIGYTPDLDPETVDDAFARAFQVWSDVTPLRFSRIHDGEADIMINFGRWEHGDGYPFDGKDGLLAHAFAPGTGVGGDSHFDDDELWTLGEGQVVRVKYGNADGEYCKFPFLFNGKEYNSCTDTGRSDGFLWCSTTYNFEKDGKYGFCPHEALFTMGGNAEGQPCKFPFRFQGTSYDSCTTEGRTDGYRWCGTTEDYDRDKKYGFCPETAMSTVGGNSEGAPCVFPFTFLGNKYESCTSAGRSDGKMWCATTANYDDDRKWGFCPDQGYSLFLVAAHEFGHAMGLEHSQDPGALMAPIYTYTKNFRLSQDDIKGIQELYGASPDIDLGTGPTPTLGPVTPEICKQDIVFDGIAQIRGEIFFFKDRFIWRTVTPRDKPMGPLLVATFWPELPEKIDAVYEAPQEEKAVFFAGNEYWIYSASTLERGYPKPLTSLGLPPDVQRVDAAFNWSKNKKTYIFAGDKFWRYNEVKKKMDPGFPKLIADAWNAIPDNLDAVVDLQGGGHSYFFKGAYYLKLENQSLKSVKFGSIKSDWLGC
IC50 [1],IC50 [2],Ki (Carbonic anhydrase 2),Ki (Carbonic anhydrase 1),Ki (Carbonic anhydrase 9),SMILES
33.7 µM,81.5 µM,7.8 µM,520 µM,7.6 µM,CCCCC(NOCc1ccccc1)C(=O)NO (stereo not drawn)
30 µM,33 µM,0.097 µM,0.89 µM,7.4 µM,CCCCCCCCCCCCCCON(CC(=O)NO)S(=O)(=O)c1ccc(OC)cc1
68 µM,141 µM,4.7 µM,9.8 µM,9.2 µM,CC(NOCc1ccc(Cl)cc1)C(=O)NO (stereo not drawn)
4.9 µM,3.4 µM,0.091 µM,4.1 µM,9.5 µM,COc1ccc(S(=O)(=O)N(CC(=O)NO)OC(C)C)cc1
94 µM,256 µM,94 µM,490 µM,6.7 µM,O=C(CNOCc1ccccc1)NO

# The remaining lines, values behind:
SMILES,IC50 [1],IC50 [2],Ki (Carbonic anhydrase 2),Ki (Carbonic anhydrase 1),Ki (Carbonic anhydrase 9)
COc1ccc(S(=O)(=O)N(CC(=O)NO)OCc2ccc(Cl)cc2)cc1,1.5 µM,0.33 µM,4.2 µM,156 µM,9.3 µM
CCC(C)C(NOCc1ccccc1)C(=O)NO (stereo not drawn),151 µM,352 µM,267 µM,435 µM,7.1 µM
COc1ccc(S(=O)(=O)N(OC(C)C)C(C(=O)NO)C(C)C)cc1 (stereo not drawn),0.66 µM,0.37 µM,0.094 µM,9 µM,9.3 µM
CCC(C)ON(C(C(=O)NO)C(C)C)S(=O)(=O)c1ccc(OC)cc1 (stereo not drawn),0.73 µM,0.286 µM,9.6 µM,9.7 µM,9.2 µM
CCON(CC(=O)NO)S(=O)(=O)c1ccc(OC)cc1,9.6 µM,2.2 µM,8.7 µM,8.91 µM,9 µM
COc1ccc(S(=O)(=O)N(Cc2cccnc2)[C@@H](C(=O)NO)C(C)C)cc1 [CGS-27023A],–,–,8.6 µM,281 µM,7.8 µM
O=C(CNOCc1ccc(Cl)cc1)NO,137 µM,261 µM,4.8 µM,10 µM,8.8 µM
COc1ccc(S(=O)(=O)N(CC(=O)NO)OCc2ccc(OCc3ccccc3)cc2)cc1,2.1 µM,1.83 µM,0.095 µM,5.9 µM,8.7 µM
COc1ccc(S(=O)(=O)N(CC(=O)NO)OC2C3CC4CC(C3)CC2C4)cc1 (stereo not drawn),1.98 µM,2 µM,0.096 µM,0.9 µM,7.8 µM
CCCCC(NOCc1ccc(Cl)cc1)C(=O)NO (stereo not drawn),81.8 µM,125 µM,6.1 µM,10.2 µM,6.9 µM
COc1ccc(S(=O)(=O)N(CC(=O)NO)OCc2ccccc2)cc1,1.06 µM,0.87 µM,0.096 µM,0.88 µM,7.5 µM
